Test results published in PMC5820112 (Journal of molecular and cellular cardiology, 2017).

How the values were obtained:
[1] = molecular target: T1, CaMKIIδ (Ca2+/calmodulin-dependent protein kinase II delta) (Homo sapiens, UniProt Q13557); test: continuous coupled spectrophotometric kinase assay with autocamtide-3; format: biochemical
[2] = molecular target: T1, CaMKIIδ (Ca2+/calmodulin-dependent protein kinase II delta); test: as above; format: biochemical; remark: listed apart in the source

T1 sequence (Q13557 2-499): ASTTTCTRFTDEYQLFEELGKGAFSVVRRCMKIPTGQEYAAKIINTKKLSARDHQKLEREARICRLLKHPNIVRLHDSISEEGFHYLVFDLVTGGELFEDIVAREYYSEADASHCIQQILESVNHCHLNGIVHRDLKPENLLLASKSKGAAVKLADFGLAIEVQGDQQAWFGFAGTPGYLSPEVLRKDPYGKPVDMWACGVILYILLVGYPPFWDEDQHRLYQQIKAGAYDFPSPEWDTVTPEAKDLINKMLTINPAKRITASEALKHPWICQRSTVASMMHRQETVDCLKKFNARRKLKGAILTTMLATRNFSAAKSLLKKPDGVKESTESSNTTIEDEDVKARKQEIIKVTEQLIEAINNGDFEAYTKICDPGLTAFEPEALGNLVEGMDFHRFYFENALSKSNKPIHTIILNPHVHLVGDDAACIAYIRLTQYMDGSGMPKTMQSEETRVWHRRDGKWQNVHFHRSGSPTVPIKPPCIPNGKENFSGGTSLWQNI

Compound	IC50 [1]	Ki [2]
COc1ccc(S(=O)(=O)N(CCO)c2ccccc2CN(C)C/C=C/c2ccc(Cl)cc2)cc1 [KN-93]	1.4 µM	–
AS105	–	0.003 µM
